Patent US12447153B2, “HER2 mutation inhibitors” (Array BioPharma Inc., priority 2021, dated 2025)

Key:
EGFR wild type (EGFR WT) = EGFR wild type (EGFR WT) (Homo sapiens (Human), UniProt P00533); assay: Cellular Phosphorylation Assay, Assay 5 (EGF-stimulated EGFR phosphorylation, NIH 3T3 cells); type: cell-based
ErbB2 WT = ErbB2 WT (Homo sapiens (Human), UniProt P04626); assay: ErbB Enzyme Assay (HTRF KinEASE-TK), Assay 2; type: biochemical
[1] = biological target: ErbB2 with Exon 20 YVMA insertion (HER2-YVMA) (Homo sapiens (Human), UniProt P04626, INS775YVMA); assay: Cellular Phosphorylation Assay, Assay 4 (constitutive ErbB2 phosphorylation, NIH 3T3 cells); type: cell-based
EGFR = EGFR (Homo sapiens (Human), UniProt P00533); assay: ErbB Enzyme Assay (HTRF KinEASE-TK), Assay 3; type: biochemical
[2] = EGF-stimulated EGFR WT phosphorylation
[3] = cellular EGFR WT phosphorylation, EGF-stimulated
[4] = cellular ErbB2 YVMA phosphorylation

Sequence of EGFR (P00533 25-1210): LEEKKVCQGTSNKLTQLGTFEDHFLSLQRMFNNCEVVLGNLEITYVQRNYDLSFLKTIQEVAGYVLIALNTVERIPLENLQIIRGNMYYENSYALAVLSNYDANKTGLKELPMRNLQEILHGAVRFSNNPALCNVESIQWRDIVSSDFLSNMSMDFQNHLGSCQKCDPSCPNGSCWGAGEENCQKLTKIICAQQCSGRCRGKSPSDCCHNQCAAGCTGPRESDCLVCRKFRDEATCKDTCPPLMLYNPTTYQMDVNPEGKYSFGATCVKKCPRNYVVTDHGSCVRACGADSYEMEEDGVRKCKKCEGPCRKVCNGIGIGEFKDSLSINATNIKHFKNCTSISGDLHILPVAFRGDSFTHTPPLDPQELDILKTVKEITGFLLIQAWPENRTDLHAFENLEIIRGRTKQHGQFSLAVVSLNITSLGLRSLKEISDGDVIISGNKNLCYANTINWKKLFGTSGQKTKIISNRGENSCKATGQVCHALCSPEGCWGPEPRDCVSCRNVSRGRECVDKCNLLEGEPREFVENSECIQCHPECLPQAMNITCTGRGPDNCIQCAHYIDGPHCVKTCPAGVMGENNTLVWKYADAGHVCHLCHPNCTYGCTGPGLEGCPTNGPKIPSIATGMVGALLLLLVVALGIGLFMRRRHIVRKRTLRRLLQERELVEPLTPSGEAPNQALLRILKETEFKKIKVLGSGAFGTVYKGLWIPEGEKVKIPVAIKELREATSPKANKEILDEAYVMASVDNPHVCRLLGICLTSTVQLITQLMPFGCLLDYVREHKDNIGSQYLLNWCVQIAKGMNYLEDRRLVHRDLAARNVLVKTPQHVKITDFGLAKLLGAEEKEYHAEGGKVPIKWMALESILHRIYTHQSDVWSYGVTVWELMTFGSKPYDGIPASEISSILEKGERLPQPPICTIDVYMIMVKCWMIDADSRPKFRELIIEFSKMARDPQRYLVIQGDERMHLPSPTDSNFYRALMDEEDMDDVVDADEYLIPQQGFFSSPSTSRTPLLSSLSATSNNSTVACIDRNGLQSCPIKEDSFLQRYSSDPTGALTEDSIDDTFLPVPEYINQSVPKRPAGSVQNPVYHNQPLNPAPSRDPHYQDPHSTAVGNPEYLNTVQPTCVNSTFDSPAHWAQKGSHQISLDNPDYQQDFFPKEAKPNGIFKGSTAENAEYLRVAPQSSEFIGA
Sequence of EGFR wild type (EGFR WT) (P00533 25-1210): as above
Sequence of ErbB2 with Exon 20 YVMA insertion (HER2-YVMA) (P04626 other isoform, or with tags, fused parts or gaps ins YVMA behind 775): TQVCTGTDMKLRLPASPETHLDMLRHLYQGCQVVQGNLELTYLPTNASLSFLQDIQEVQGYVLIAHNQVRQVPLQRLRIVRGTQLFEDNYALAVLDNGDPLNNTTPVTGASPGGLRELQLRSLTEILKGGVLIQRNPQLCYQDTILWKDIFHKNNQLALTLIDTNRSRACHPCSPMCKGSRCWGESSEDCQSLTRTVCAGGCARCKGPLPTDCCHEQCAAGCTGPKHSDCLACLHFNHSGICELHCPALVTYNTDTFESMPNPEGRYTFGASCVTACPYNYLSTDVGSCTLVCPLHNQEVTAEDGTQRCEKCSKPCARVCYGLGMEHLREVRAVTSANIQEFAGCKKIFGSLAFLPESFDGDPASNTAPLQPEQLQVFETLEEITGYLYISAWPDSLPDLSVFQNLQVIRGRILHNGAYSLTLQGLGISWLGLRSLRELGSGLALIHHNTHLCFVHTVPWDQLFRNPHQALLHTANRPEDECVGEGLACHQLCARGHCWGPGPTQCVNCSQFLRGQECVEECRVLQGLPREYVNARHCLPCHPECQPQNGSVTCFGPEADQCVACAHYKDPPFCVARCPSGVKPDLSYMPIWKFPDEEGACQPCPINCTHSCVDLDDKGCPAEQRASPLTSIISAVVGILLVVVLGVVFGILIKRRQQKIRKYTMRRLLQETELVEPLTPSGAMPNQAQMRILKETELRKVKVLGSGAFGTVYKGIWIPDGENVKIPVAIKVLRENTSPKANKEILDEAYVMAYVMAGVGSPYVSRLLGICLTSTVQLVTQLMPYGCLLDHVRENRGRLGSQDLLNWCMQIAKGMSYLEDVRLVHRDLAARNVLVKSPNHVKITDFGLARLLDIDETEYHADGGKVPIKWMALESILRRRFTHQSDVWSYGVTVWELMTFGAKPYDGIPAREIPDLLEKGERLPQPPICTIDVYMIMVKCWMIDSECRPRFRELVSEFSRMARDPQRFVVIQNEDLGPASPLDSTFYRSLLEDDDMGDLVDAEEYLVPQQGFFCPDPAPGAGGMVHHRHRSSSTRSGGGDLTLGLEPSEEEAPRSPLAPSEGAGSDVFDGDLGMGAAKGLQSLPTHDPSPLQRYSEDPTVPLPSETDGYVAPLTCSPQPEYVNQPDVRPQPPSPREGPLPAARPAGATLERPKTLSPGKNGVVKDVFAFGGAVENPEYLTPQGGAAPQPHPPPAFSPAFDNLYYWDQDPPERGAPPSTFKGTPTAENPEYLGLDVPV
Sequence of ErbB2 WT (P04626 23-1255): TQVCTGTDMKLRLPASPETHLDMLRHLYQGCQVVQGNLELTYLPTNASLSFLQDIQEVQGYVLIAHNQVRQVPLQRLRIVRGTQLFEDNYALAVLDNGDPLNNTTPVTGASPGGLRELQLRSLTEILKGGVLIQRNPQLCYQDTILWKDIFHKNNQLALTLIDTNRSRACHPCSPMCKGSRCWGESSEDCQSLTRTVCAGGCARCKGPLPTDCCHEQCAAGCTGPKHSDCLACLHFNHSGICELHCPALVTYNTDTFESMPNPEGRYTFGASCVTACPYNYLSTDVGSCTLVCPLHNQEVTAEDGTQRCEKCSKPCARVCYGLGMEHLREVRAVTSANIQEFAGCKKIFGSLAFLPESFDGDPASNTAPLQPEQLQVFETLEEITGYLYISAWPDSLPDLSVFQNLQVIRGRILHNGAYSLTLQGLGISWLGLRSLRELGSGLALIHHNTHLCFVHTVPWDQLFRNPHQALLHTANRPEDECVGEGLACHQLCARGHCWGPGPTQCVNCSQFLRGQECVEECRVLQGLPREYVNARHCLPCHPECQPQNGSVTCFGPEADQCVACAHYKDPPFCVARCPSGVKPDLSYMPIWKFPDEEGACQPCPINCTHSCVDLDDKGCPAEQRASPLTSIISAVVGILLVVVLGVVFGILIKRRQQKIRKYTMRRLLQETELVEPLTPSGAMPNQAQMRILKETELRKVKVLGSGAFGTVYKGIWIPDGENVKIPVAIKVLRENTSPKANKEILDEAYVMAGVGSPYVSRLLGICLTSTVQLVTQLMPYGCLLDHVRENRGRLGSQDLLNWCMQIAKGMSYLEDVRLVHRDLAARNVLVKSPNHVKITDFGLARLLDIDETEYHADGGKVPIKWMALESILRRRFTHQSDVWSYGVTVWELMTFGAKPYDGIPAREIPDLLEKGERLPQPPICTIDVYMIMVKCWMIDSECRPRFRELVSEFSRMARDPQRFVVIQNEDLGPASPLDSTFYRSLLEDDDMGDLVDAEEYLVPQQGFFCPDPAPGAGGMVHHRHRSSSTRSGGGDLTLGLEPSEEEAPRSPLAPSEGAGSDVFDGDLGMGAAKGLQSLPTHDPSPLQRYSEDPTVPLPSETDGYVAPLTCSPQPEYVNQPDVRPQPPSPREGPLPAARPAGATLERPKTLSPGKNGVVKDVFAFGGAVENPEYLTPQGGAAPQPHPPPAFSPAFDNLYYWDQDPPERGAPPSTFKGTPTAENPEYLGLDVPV

Row | Compound | IC50 (EGFR wild type (EGFR WT); [2]) [nM] | IC50 (ErbB2 WT; ErbB2 WT enzyme) [nM] | IC50 ([1]; ErbB2 YVMA phosphorylation) [nM] | IC50 (EGFR; EGFR enzyme) [nM] | IC50 (EGFR wild type (EGFR WT); [3]) [nM] | IC50 (ErbB2 WT; ErbB2 WT enzyme assay) [nM] | IC50 [1, 4] [nM] | IC50 (EGFR; EGFR enzyme assay) [nM]
1 | C=CC(=O)N1[C@@H]2CC[C@H]1CC(c1ccc3ncnc(Nc4cc(C)c(Oc5ccc6c(c5)ncn6C)cc4F)c3n1)C2 (mixture of isomers) [Example 130, rac-1-((1R,5S)-3-(4-((2-fluoro-5-methyl-4-((1-methyl-1H-benzo[d]imidazol-5-yl)oxy)phenyl)amino)pyrido[3,2-d]pyrimidin-6-yl)-8-azabicyclo[3.2.1]octan-8-yl)prop-2-en-1-one] | ≥ 5000 | 135 | 19.9 | 7340 | – | – | – | –
2 | C=CC(=O)N1C[C@@H]2C[C@H](c3ccc4ncnc(Nc5cc(C)c(Oc6ccn7ncnc7c6)cc5F)c4n3)C[C@H]1C2 [Example 390] | – | – | – | – | 1250 | 68.1 | 30.2 | 2210
3 | C=CC(=O)N1CC[C@@H]2[C@H](c3ccc4ncnc(Nc5cc(C)c(Oc6ccc7c(c6)ncn7C)cc5F)c4n3)CC[C@@H]21 (racemic) [Example 134, rac-1-((3aR,4R,6aS)-4-(4-((2-fluoro-5-methyl-4-((1-methyl-1H-benzo[d]imidazol-5-yl)oxy)phenyl)amino)pyrido[3,2-d]pyrimidin-6-yl)hexahydrocyclopenta[b]pyrrol-1(2H)-yl)prop-2-en-1-one] | ≥ 5000 | 86.3 | 222 | ≥ 10000 | – | – | – | –
4 | C=CC(=O)N1C[C@@H](c2ccc3ncnc(Nc4cc(C)c(Oc5ccc6c(c5)ncn6C)cc4F)c3n2)CC[C@H]1C [Example 170, 1-((2R,5S)-5-(4-((2-fluoro-5-methyl-4-((1-methyl-1H-benzo[d]imidazol-5-yl)oxy)phenyl)amino)pyrido[3,2-d]pyrimidin-6-yl)-2-methylpiperidin-1-yl)prop-2-en-1-one] | ≥ 5000 | 261 | 44.9 | ≥ 10000 | – | – | – | –
5 | C=CC(=O)N1CCN(c2ccc3ncnc(Nc4cc(Cl)c(Oc5ccn6ncnc6c5)cc4F)c3n2)C[C@H]1C(C)(C)C [Example 309] | – | – | – | – | ≥ 5000 | 10000 | 16.1 | ≥ 10000
6 | C=CC(=O)N1C[C@@H]2CC[C@H]1CN2c1ccc2ncnc(Nc3ccc(Oc4ccn5ncnc5c4)c(C)c3F)c2n1 [Example 331] | – | – | – | – | 79 | 4.7 | 3.2 | 48.8
7 | C=CC(=O)N1[C@H](C)CN(c2ccc3ncnc(Nc4cc(C)c(Oc5ccn6ncnc6c5)cc4F)c3n2)C[C@@H]1C [Example 263] | – | – | – | – | ≥ 5000 | 148 | 204 | ≥ 10000
8 | C=CC(=O)N1CCCN(c2nc3c(Nc4ccc(Oc5ccn6ncnc6c5)c(C)c4F)ncnc3cc2OC)CC1 [Example 150, 1-(4-(4-((4-([1,2,4]triazolo[1,5-a]pyridin-7-yloxy)-2-fluoro-3-methylphenyl)amino)-7-methoxypyrido[3,2-d]pyrimidin-6-yl)-1,4-diazepan-1-yl)prop-2-en-1-one] | ≥ 5000 | 16.6 | 47 | 1550 | – | – | – | –
9 | C=CC(=O)N1CCCN(c2ccc3ncnc(Nc4ccc(Oc5ccn6ncnc6c5)c(C)c4F)c3n2)CC1 [Example 100, 1-(4-(4-((4-([1,2,4]triazolo[1,5-a]pyridin-7-yloxy)-2-fluoro-3-methylphenyl)amino)pyrido[3,2-d]pyrimidin-6-yl)-1,4-diazepan-1-yl)prop-2-en-1-one] | ≥ 5000 | 132 | 66.1 | 9570 | – | – | – | –
10 | C=CC(=O)N1CCN(c2ccc3ncnc(Nc4cc(F)c(Oc5ccn6ncnc6c5)cc4F)c3n2)CC1(C)C [Example 453] | – | – | – | – | ≥ 5000 | 147 | 56.3 | ≥ 10000
11 | C=CC(=O)N1CCN(c2ccc3ncnc(Nc4ccc(Oc5ccn6ncnc6c5)c(Cl)c4F)c3n2)CC1C(F)F (centres unmarked) [Example 366] | – | – | – | – | 35.6 | 7.3 | 5.3 | 68.3
12 | C=CC(=O)N1[C@@H](C)CC(c2ccc3ncnc(Nc4ccc(Oc5ccc6c(c5)ncn6C)c(C)c4F)c3n2)C[C@@H]1C (mixture of isomers) [Example 313] | – | – | – | – | ≥ 5000 | 79.7 | 51.9 | ≥ 10000
13 | C=CC(=O)N1CCC12CN(c1ccc3ncnc(Nc4cc(Cl)c(Oc5ccn6ncnc6c5)cc4F)c3n1)C2 [Example 343] | – | – | – | – | 372 | 44.6 | 9.4 | 841
14 | C=CC(=O)N1CCN(c2ccc3ncnc(Nc4cc(Cl)c(Oc5cnc6c(c5)ncn6C)cc4F)c3n2)C[C@@H]1C1CC1 [Example 440] | – | – | – | – | ≥ 5000 | 189 | 42.8 | ≥ 10000
15 | C=CC(=O)N1[C@H]2CC[C@@H]1[C@H](c1ccc3ncnc(Nc4ccc(Oc5ccn6ncnc6c5)c(C)c4F)c3n1)CC2 [Example 429] | – | – | – | – | 447 | 28.4 | 13.8 | 520
16 | C=CC(=O)N1CCN(c2ccc3ncnc(Nc4ccc(Oc5ccn6ncnc6c5)cc4C(F)(F)F)c3n2)CC1(C)C [Example 448] | – | – | – | – | 3440 | 370 | 87.6 | ≥ 10000
17 | C=CC(=O)N1CCCCC(c2ccc3ncnc(Nc4ccc(Oc5ccc6c(c5)ncn6C)c(C)c4)c3n2)C1 (centres unmarked) [Example 126, 1-(3-(4-((3-methyl-4-((1-methyl-1H-benzo[d]imidazol-5-yl)oxy)phenyl)amino)pyrido[3,2-d]pyrimidin-6-yl)azepan-1-yl)prop-2-en-1-one] | 1770 | 12.3 | 12.2 | 1260 | – | – | – | –
18 | C=CC(=O)N1[C@@H]2CC[C@H]1[C@H](c1ccc3ncnc(Nc4ccc(Oc5ccn6ncnc6c5)c(C)c4)c3n1)C2 (single isomer, unassigned) [Example 233] | ≥ 5000 | 121 | 83.8 | 4880 | – | – | – | –
19 | C=CC(=O)N1CCCC(c2ccc3ncnc(Nc4ccc(Oc5ccn6ncnc6c5)c(C)c4F)c3n2)CC1 (centres unmarked) [Example 189, 1-(4-(4-((4-([1,2,4]triazolo[1,5-a]pyridin-7-yloxy)-2-fluoro-3-methylphenyl)amino)pyrido[3,2-d]pyrimidin-6-yl)azepan-1-yl)prop-2-en-1-one] | 1790 | 11.1 | 41.2 | 1280 | – | – | – | –
20 | C=CC(=O)N(C)[C@H]1CCN(c2ccc3ncnc(Nc4ccc(Oc5ccn6ncnc6c5)c(C)c4F)c3n2)C1 [Example 352] | – | – | – | – | ≥ 5000 | 25.4 | 11.5 | 2910
21 | C=CC(=O)N1C[C@@H]2C[C@H]1CC[C@@H]2c1ccc2ncnc(Nc3ccc(Oc4ccc5c(c4)ncn5C)c(C)c3F)c2n1 [Example 379] | – | – | – | – | ≥ 5000 | 29.2 | 36.5 | 4210
22 | C=CC(=O)N1CCN(c2ccc3ncnc(Nc4ccc(Oc5ccn6ncnc6c5)c(Cl)c4F)c3n2)C[C@H]1C [Example 91, (R)-1-(4-(4-((4-([1,2,4]triazolo[1,5-a]pyridin-7-yloxy)-3-chloro-2-fluorophenyl)amino)pyrido[3,2-d]pyrimidin-6-yl)-2-methylpiperazin-1-yl)prop-2-en-1-one] | 56.8 | 9.8 | 2.8 | 358 | – | – | – | –
23 | C=CC(=O)N1CCN(c2ccc3ncnc(Nc4ccc(Oc5ccn6ncnc6c5)c(C)c4F)c3n2)C[C@H]1C [Example 89, (R)-1-(4-(4-((4-([1,2,4]triazolo[1,5-a]pyridin-7-yloxy)-2-fluoro-3-methylphenyl)amino)pyrido[3,2-d]pyrimidin-6-yl)-2-methylpiperazin-1-yl)prop-2-en-1-one] | 449 | 76.5 | 10.9 | 3630 | – | – | – | –
24 | CC#CC(=O)N1CCN(c2ccc3ncnc(Nc4ccc(Oc5ccn6ncnc6c5)c(C)c4F)c3n2)C[C@@H]1COC [Example 180, (R)-1-(4-(4-((4-([1,2,4]triazolo[1,5-a]pyridin-7-yloxy)-2-fluoro-3-methylphenyl)amino)pyrido[3,2-d]pyrimidin-6-yl)-2-(methoxymethyl)piperazin-1-yl)but-2-yn-1-one] | ≥ 5000 | 314 | 73.4 | ≥ 10000 | – | – | – | –
25 | C=CC(=O)N1CCCCC(c2ccc3ncnc(Nc4ccc(Oc5ccn6ncnc6c5)c(C)c4F)c3n2)C1 (centres unmarked) [Example 377] | – | – | – | – | 426 | 13 | 16.3 | 187
26 | C=CC(=O)N1CCC[C@@H](c2ccc3ncnc(Nc4ccc(Oc5ccn6ncnc6c5)c(C)c4F)c3n2)CC1 (single isomer, unassigned) [Example 209] | 503 | 16.4 | 20.1 | 872 | – | – | – | –
27 | C=CC(=O)N1CC[C@H]2C[C@@H]1CN2c1ccc2ncnc(Nc3ccc(Oc4cnc5c(c4)ncn5C)c(C)c3F)c2n1 [Example 237, 1-((1R,5S)-6-(4-((2-fluoro-3-methyl-4-((3-methyl-3H-imidazo[4,5-b]pyridin-6-yl)oxy)phenyl)amino)pyrido[3,2-d]pyrimidin-6-yl)-2,6-diazabicyclo[3.2.1]octan-2-yl)prop-2-en-1-one] | ≥ 5000 | 1330 | 256 | ≥ 10000 | – | – | – | –
28 | C=C(C)C(=O)N1CCN(c2ccc3ncnc(Nc4ccc(Oc5ccn6ncnc6c5)c(C)c4F)c3n2)CC1(C)C [Example 341] | – | – | – | – | ≥ 5000 | 113 | 529 | ≥ 10000
29 | C=CC(=O)N1CCN(c2ccc3ncnc(Nc4ccc(Oc5ccn6ncnc6c5)c(C)c4F)c3n2)C[C@@H]1C1CC1 [Example 285] | – | – | – | – | ≥ 5000 | 65.8 | 34.1 | ≥ 10000
